Our source for the melting point and IC50 values is article PMC9822051, “A Study on the Chemistry and Biological Activity of 26-Sulfur Analogs of Diosgenin: Synthesis of 26-Thiodiosgenin S-Mono- and Dioxides, and Their Alkyl Derivatives” (Molecules, 2022).

Series [1] concerns breast adenocarcinoma MCF7. In words: Cytotoxicity, resazurin, 72 h. The class given is cell-based, human. The following applies: MCF7, 72 h. How it is done:
(§1) The studied compounds were evaluated for cytotoxicity in human cancer cell lines (cervical carcinoma HeLa, chronic myelogenous leukemia K562 and breast adenocarcinoma MCF7) and normal human retina cells RPE-1 (ca. 5.0 × 10^4 cells·mL^−1) after 72 h of treatment using resazurin (Merck/MilliporeSigma, St. Louis, MO, USA) as described earlier for Calcein AM dye.
On the technique in general: The colour change of resazurin is a common sign of viable cells or microbes.

Another series concerns cervical carcinoma HeLa. As to the kind of experiment: Cytotoxicity, resazurin, 72 h. The class given is cell-based, human. How it is done: as §1
For series [2], the system named is chronic myelogenous leukemia K562. In words: Cytotoxicity, resazurin, 72 h. The format is cell-based, human. As to conditions: K562, 72 h. How it is done:
as §1

The subject of series [3] is normal human retina cells RPE-1. In words: Cytotoxicity, resazurin, 72 h. The following applies: RPE-1 normal cells. The class given is cell-based. The method, then: as §1

Take `CC1CCC2(OC3CC4C5CC=C6CC(O)CCC6(C)C5CCC4(C)C3C2C)[S+]([O-])C1` (centres unmarked) [Sulfoxide 7]: the melting point (usually the temperature of the solid-liquid transition) is 165 to 166 °C. Moreover, the IC50 (in general, the concentration that inhibits the measured activity by half) in series [1] is greater than 50 µM. This compound gave a half-inhibitory concentration (IC50) with cervical carcinoma HeLa of 34.3 ± 3 µM. Further, in series [2], the IC50 is greater than 50 µM. Also, the IC50 in series [3] was greater than 50 µM.
